Data as given in US20230286928A1, “HETEROCYCLIC COMPOUNDS USEFUL IN THE TREATMENT OF DISEASE” (Epigen Biosciences, Inc., priority 2018, published 2023).

Biological target: T1, LPA1R (Homo sapiens, UniProt Q92633)
T1 construct: host or cells: LPA1R expressing cells (Millipore, GPCR Profiler)
Test: Calcium flux assay: inhibition of LPA-stimulated Ca2+ flux (FLIPR, antagonist mode)
Type: cell-based
Conditions: LPA1R Ca2+ flux functional assay, LPA1R expressing cells challenged with EC80 of LPA, read-out: LPA1 R Antagonist Activity
Protocol: Inhibition of LPA-stimulated Ca^2+ flux was used to assess compound potency using FLIPR technology in a 96 well plate format. The assay buffer used was a modified Hanks Balanced Salt Solution (HBSS) where HBSS was supplemented to contain 20 mM HEPES and 2.5 mM Probenecid at pH7.4 (Millipore, GPCR Profiler®). LPA1R expressing cells (Millipore) were plated and prepared 24 hours prior to assay of test articles. Ca^2+ ion flux was assessed from fluorescence of a Fluo-based No Wash Ca^2+ dye. Antagonist data are generated from plates with LPA concentrations sufficient to generate 80% efficacy [EC80]. Percentage inhibition was calculated from a reduction of efficacy according to concentration of compounds of Formula I-VI. For dose responses the inhibition data was used to calculate compound IC50.
The agonist assay was conducted on a FLIPR^TETRA instrument where the test compound(s), vehicle controls, and reference agonist were added to the assay plate after a fluorescence baseline was established. The agonist assay was a total of 180 seconds and was used to assess each compound's ability to activate each GPCR assayed. Upon completion of the agonist assay, the assay plate was removed from the FLIPR^TETRA and incubated at 25° C. for seven (7) minutes. After the incubation period, the assay plate was placed back in the FLIPR^TETRA and the antagonist assay was initiated.
Antagonist Assay: Using EC80 potency values determined during the agonist assay, all pre-incubated sample compound wells were challenged with EC80 concentration of reference agonist after establishment of a fluorescence baseline. The antagonist assay was conducted using the same assay plate that was used for the agonist assay. The antagonist assay was conducted on a FLIPR^TETRA instrument where 9 vehicle controls and EC80 concentration of reference agonist were added to appropriate wells. The antagonist assay was a total of 180 seconds and was used to assess each compound's ability to inhibit each GPCR assayed.
Data Processing: All assay plate data were subjected to appropriate baseline corrections. After baseline corrections were applied, maximum fluorescence values were exported and data processed to calculate percentage activation (relative to Emax reference agonist and vehicle control values), percentage inhibition (relative to EC80 and vehicle control values), and additional statistical values (i.e. Z′, percentage variation between replicate data values) to assess the quality of each plate. Where assay plate data were rejected, additional experiments were conducted. All dose response curves were generated using GraphPad Prism. The curves were fit by utilizing “Sigmoidal Dose Response (Variable Slope)” equation where the bottom parameter was fixed to “0.” Where appropriate, the top parameter was fixed to “100” to better predict potency values when a full curve was not generated by the concentrations assayed.

T1 sequence (Q92633 whole entry): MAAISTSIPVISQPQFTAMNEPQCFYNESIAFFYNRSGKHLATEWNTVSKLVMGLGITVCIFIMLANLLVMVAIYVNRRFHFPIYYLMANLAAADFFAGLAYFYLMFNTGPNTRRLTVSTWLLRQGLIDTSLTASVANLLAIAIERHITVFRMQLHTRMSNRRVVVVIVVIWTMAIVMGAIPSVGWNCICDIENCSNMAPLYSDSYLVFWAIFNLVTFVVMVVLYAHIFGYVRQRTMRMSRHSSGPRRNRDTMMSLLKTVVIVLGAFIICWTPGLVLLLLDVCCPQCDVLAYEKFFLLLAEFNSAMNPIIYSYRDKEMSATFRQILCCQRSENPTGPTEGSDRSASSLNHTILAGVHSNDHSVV

SMILES | IC50 [nM]
C[C@@H](OC(=O)Nc1c(F)cnn1-c1ccc(-c2ccc(C3(C(=O)NS(C)(=O)=O)CC3)cc2F)cc1)c1ccccc1Cl [Compound 16, (R)-1-(2-chlorophenyl)ethyl (4-fluoro-1-(2′-fluoro-4′-(1-((methylsulfonyl)carbamoyl)cyclopropyl)-[1,1′-biphenyl]-4-yl)-1H-pyrazol-5-yl)carbamate] | < 300
Cc1cc(C2(C(=O)O)CC2)ccc1-c1ccc(-n2ncc(F)c2NC(=O)O[C@H](C)c2ccccc2)cc1 [Compound 13, (R)-1-(4′-(4-fluoro-5-(((1-phenylethoxy)carbonyl)amino)-1H-pyrazol-1-yl)-2-methyl-[1,1′-biphenyl]-4-yl)cyclopropane-1-carboxylic acid] | < 300
Cc1cc(C2(C(=O)O)CC2)ccc1-c1ccc(-n2ncc(Cl)c2NC(=O)O[C@H](C)c2ccccc2)cc1 [Compound 14, (R)-1-(4′-(4-chloro-5-(((1-phenylethoxy)carbonyl)amino)-1H-pyrazol-1-yl)-2-methyl-[1,1′-biphenyl]-4-yl)cyclopropane-1-carboxylic acid] | < 300
C[C@@H](OC(=O)Nc1c(Cl)cnn1-c1ccc(-c2ccc(C3(C(=O)NC#N)CC3)cc2)cc1)c1ccccc1Cl [Compound 25, (R)-1-(2-chlorophenyl)ethyl (4-chloro-1-(4′-(1-(cyanocarbamoyl)cyclopropyl)-[1,1′-biphenyl]-4-yl)-1H-pyrazol-5-yl)carbamate] | 1000 to 50000
C[C@@H](OC(=O)Nc1c(F)cnn1-c1ccc(-c2ccc(C3(C(=O)O)CC3)cc2Cl)cc1)c1ccccc1 [Compound 11, (R)-1-(2-chloro-4′-(4-fluoro-5-(((1-phenylethoxy)carbonyl)amino)-1H-pyrazol-1-yl)-[1,1′-biphenyl]-4-yl)cyclopropane-1-carboxylic acid] | < 300
C[C@@H](OC(=O)Nc1c(Cl)cnn1-c1ccc(-c2ccc(C3(C(=O)O)CC3)cc2Cl)cc1)c1ccccc1 [Compound 12, (R)-1-(2-chloro-4′-(4-chloro-5-(((1-phenylethoxy)carbonyl)amino)-1H-pyrazol-1-yl)-[1,1′-biphenyl]-4-yl)cyclopropane-1-carboxylic acid] | < 300
C[C@@H](OC(=O)Nc1c(F)cnn1-c1ccc(-c2ccc(C3(C(=O)NC#N)CC3)cc2F)cc1)c1ccccc1Cl [Compound 26, (R)-1-(2-chlorophenyl)ethyl (1-(4′-(1-(cyanocarbamoyl)cyclopropyl)-2′-fluoro-[1,1′-biphenyl]-4-yl)-4-fluoro-1H-pyrazol-5-yl)carbamate] | < 300
C[C@@H](OC(=O)Nc1c(C#N)cnn1-c1ccc(-c2ccc(C3(C(=O)O)CC3)cc2)cc1)c1ccccc1Cl [Compound 6, (R)-1-(4′-(5-(((1-(2-chlorophenyl)ethoxy)carbonyl)amino)-4-cyano-1H-pyrazol-1-yl)-[1,1′-biphenyl]-4-yl)cyclopropane-1-carboxylic acid] | < 300
C[C@@H](OC(=O)Nc1c(F)cnn1-c1ccc(-c2ccc(C3(C(=O)O)CC3)cc2)cc1)c1ccccc1 [Compound 3, (R)-1-(4′-(4-fluoro-5-(((1-phenylethoxy)carbonyl)amino)-1H-pyrazol-1-yl)-[1,1′-biphenyl]-4-yl)cyclopropane-1-carboxylic acid] | < 300
C[C@@H](OC(=O)Nc1c(Cl)cnn1-c1ccc(-c2ccc(C3(C(=O)NS(C)(=O)=O)CC3)cc2F)cc1)c1ccccc1Cl [Compound 18, (R)-1-(2-chlorophenyl)ethyl (4-chloro-1-(2′-fluoro-4′-(1-((methylsulfonyl)carbamoyl)cyclopropyl)-[1,1′-biphenyl]-4-yl)-1H-pyrazol-5-yl)carbamate] | < 300
C[C@@H](OC(=O)Nc1c(F)cnn1-c1ccc(-c2ccc(C3(C(=O)NS(C)(=O)=O)CC3)cc2)cc1)c1ccccc1Cl [Compound 20, (R)-1-(2-chlorophenyl)ethyl (4-fluoro-1-(4′-(1-((methylsulfonyl)carbamoyl)cyclopropyl)-[1,1′-biphenyl]-4-yl)-1H-pyrazol-5-yl)carbamate] | < 300
C[C@@H](OC(=O)Nc1c(Cl)cnn1-c1ccc(-c2ccc(C3(C(=O)NC#N)CC3)cc2)cc1)c1ccccc1 [Compound 24, (R)-1-phenylethyl (4-chloro-1-(4′-(1-(cyanocarbamoyl)cyclopropyl)-[1,1′-biphenyl]-4-yl)-1H-pyrazol-5-yl)carbamate] | 1000 to 50000
C[C@@H](OC(=O)Nc1c(C#N)cnn1-c1ccc(-c2ccc(C(C)(C)C(=O)O)cc2)cc1)c1ccccc1 [Compound 28, (R)-2-(4′-(4-cyano-5-(((1-phenylethoxy)carbonyl)amino)-1H-pyrazol-1-yl)-[1,1′-biphenyl]-4-yl)-2-methylpropanoic acid] | < 300
C[C@@H](OC(=O)Nc1c(Cl)cnn1-c1ccc(-c2ccc(C3(C(=O)NS(C)(=O)=O)CC3)cc2)cc1)c1ccccc1 [Compound 19, (R)-1-phenylethyl (4-chloro-1-(4′-(1-((methylsulfonyl)carbamoyl)cyclopropyl)-[1,1′-biphenyl]-4-yl)-1H-pyrazol-5-yl)carbamate] | < 300
C[C@@H](OC(=O)Nc1c(Cl)cnn1-c1ccc(-c2ccc(C3(c4nnn[nH]4)CC3)cc2)cc1)c1ccccc1Cl [Compound 23, (R)-1-(2-chlorophenyl)ethyl (1-(4′-(1-(1H-tetrazol-5-yl)cyclopropyl)-[1,1′-biphenyl]-4-yl)-4-chloro-1H-pyrazol-5-yl)carbamate] | 1000 to 50000
C[C@@H](OC(=O)Nc1c(F)cnn1-c1ccc(-c2ccc(C3(C(=O)NS(C)(=O)=O)CC3)cc2F)cc1)c1ccccc1 [Compound 17, (R)-1-phenylethyl (4-fluoro-1-(2′-fluoro-4′-(1-((methylsulfonyl)carbamoyl)cyclopropyl)-[1,1′-biphenyl]-4-yl)-1H-pyrazol-5-yl)carbamate] | < 300
C[C@@H](OC(=O)Nc1c(Cl)cnn1-c1ccc(-c2ccc(C3(C(=O)O)CC3)c(F)c2)cc1)c1ccccc1 [Compound 9, (R)-1-(4′-(4-chloro-5-(((1-phenylethoxy)carbonyl)amino)-1H-pyrazol-1-yl)-3-fluoro-[1,1′-biphenyl]-4-yl)cyclopropane-1-carboxylic acid] | < 300
C[C@@H](OC(=O)Nc1c(F)cnn1-c1ccc(-c2ccc(C3(c4nnn[nH]4)CC3)cc2)cc1)c1ccccc1Cl [Compound 21, (R)-1-(2-chlorophenyl)ethyl (1-(4′-(1-(1H-tetrazol-5-yl)cyclopropyl)-[1,1′-biphenyl]-4-yl)-4-fluoro-1H-pyrazol-5-yl)carbamate] | 1000 to 50000
C[C@@H](OC(=O)Nc1c(F)cnn1-c1ccc(-c2ccc(C3(C(=O)O)CC3)c(F)c2)cc1)c1ccccc1 [Compound 7, (R)-1-(3-fluoro-4′-(4-fluoro-5-(((1-phenylethoxy)carbonyl)amino)-1H-pyrazol-1-yl)-[1,1′-biphenyl]-4-yl)cyclopropane-1-carboxylic acid] | < 300
C[C@@H](OC(=O)Nc1c(Cl)cnn1-c1ccc(-c2ccc(C3(C(=O)O)CC3)cc2)nc1)c1ccccc1Cl [Compound 2, (R)-1-(4-(5-(4-chloro-5-(((1-(2-chlorophenyl)ethoxy)carbonyl)amino)-1H-pyrazol-1-yl)pyridin-2-yl)phenyl)cyclopropane-1-carboxylic acid] | < 300
C[C@@H](OC(=O)Nc1c(Cl)cnn1-c1ccc(-c2ccc(C3(C(=O)O)CC3)cc2)cc1)c1ccccc1 [Compound 4, (R)-1-(4′-(4-chloro-5-(((1-phenylethoxy)carbonyl)amino)-1H-pyrazol-1-yl)-[1,1′-biphenyl]-4-yl)cyclopropane-1-carboxylic acid] | < 300
C[C@@H](OC(=O)Nc1c(C#N)cnn1-c1ccc(-c2ccc(C3(C(=O)O)CC3)cc2)cc1)c1ccccc1 [Compound 5, (R)-1-(4′-(4-cyano-5-(((1-phenylethoxy)carbonyl)amino)-1H-pyrazol-1-yl)-[1,1′-biphenyl]-4-yl)cyclopropane-1-carboxylic acid] | < 300
C[C@@H](OC(=O)Nc1c(F)cnn1-c1ccc(-c2ccc(C3(C(N)=O)CC3)cc2)cc1)c1ccccc1Cl [Compound 15, (R)-1-(2-chlorophenyl)ethyl (1-(4′-(1-carbamoylcyclopropyl)-[1,1′-biphenyl]-4-yl)-4-fluoro-1H-pyrazol-5-yl)carbamate] | < 300
C[C@@H](OC(=O)Nc1c(Cl)cnn1-c1ccc(-c2ccc(C3(C(=O)O)CC3)cc2F)cc1)c1ccccc1 [Compound 10, (R)-1-(4′-(4-chloro-5-(((1-phenylethoxy)carbonyl)amino)-1H-pyrazol-1-yl)-2-fluoro-[1,1′-biphenyl]-4-yl)cyclopropane-1-carboxylic acid] | < 300
